Assay type in all cases: cell-based
One assay addresses T1, RIPK2 (Homo sapiens, UniProt O43353).
T1 construct: the RIPK2 gene was modified, using CRISPR/Cas9 editing, so the expressed RIPK2 protein included an 11 amino acid HiBiT tag; endogenous in cells; host or cells: clonal HEK 293-derived line, RIPK2 gene edited by CRISPR/Cas9 (heterozygous)
Nature of the assay: RIPK2 Degradation Assay (Nano-Glo HiBiT). The following applies: HiBiT-tagged RIPK2 in HEK 293 cells, 18 h. The text has this:
Degradation of RIPK2 protein in human embryonic kidney (HEK 293) cells treated with PROTACs was quantified using the Nano-Glo® HiBiT Lytic Detection System (Promega) in 384 well assay plate format. A clonal HEK 293 derived cell line was first established in which the RIPK2 gene was modified, using CRISPR/Cas9 editing, so the expressed RIPK2 protein included an 11 amino acid HiBiT tag at it's amino-terminus. The cell lines were heterozygotic for the HiBIT modification. Cells were cryopreserved in aliquots in 90% foetal bovine serum (FBS), 10% DMSO and stored at −150° C. 10 mM DMSO stock solutions of PROTACs were prepared and diluted across an 11 concentration, 3 fold increment range, and 25 nL dispensed into a white opaque bottomed 384 well assay plate (Thermofisher) using an acoustic ECHO dispenser (Labcyte). For the assay, a cryopreserved vials of cells was rapidly thawed and suspended in 30 mL of assay medium (FluoroBrite™ DMEM supplemented with 10% heat inactivated FBS, penicillin 50 U/mL and streptomycin 50 ug/mL (Thermofisher)). The cell suspension was centrifuged at 400 g for 5 min and the pellet resuspended in assay medium. 25 μL of cell suspension containing 10,000 cells was dispensed into each well of the assay plate containing the test compounds, which was then incubated for 18 h at 37° C./5% CO2. Control wells were included on each assay plate, with assay medium without cells being the no RIPK2 remaining 100% effect control, and cells treated with DMSO vehicle only, without PROTAC, the 0% effect control. 25 μL of Nano-Glo® HiBiT lysis buffer supplemented with LgBiT protein and Nano-Glo® substrate (Promega) was added to each well and the plate shaken at 500 rpm for 10 min at room temperature. The intensity of luminescence was measured using a PHERAstar microplate reader (BMG Labtech) and the % RIPK2 protein remaining in each well calculated by normalising the raw luminescence value to the above control wells. Parameters corresponding to the potency and efficacy estimates of the PROTACs were obtained from these normalised luminescence values using software (IDBS ActivityBase). These included the DC50 and the Dmax estimates. Two versions of the DC50, called relative DC50 and absolute DC50, were typically generated. These are the inflection point of a fitted 4 parameter sigmoidal response curve and the interpolated concentration of PROTAC corresponding to 50% of the protein being degraded, respectively. The Dmax parameter was the maximum experimentally observed degradation and the asymptote max parameter the fitted response curve asymptote maximum.
(In general: With HiBiT, luminescence reflects the tagged protein that the partner subunit can reach.)

Another assay has as its target T2, Androgen Receptor (Homo sapiens, UniProt P10275, T878A).
T2 construct: the AR gene was modified, using CRISPR/Cas9 editing, so the expressed AR protein included an 11 amino acid HiBiT tag; endogenous in cells; host or cells: clonal LnCaP-derived line, AR gene edited by CRISPR/Cas9
As to the kind of experiment: Androgen Receptor Degradation Assay (Nano-Glo HiBiT). The following applies: LNCaP, 18 h, HiBiT-tagged AR in human LnCaP cells, read-out: mean asymptote max. In short, it runs like this: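 LnCaP cells with CRISPR-knocked-in N-terminal HiBiT-tagged AR (10,000/well) treated 18 h at 37 °C with PROTACs over 11 threefold concentrations; lytic HiBiT luminescence normalised to DMSO (0%) and cell-free (100%) controls. Relative DC50 = 4-parameter fit inflection; absolute DC50 = 50% degradation interpolation; Dmax = maximum observed degradation.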

The target of assay [1] is T3, Androgen Receptor dual T878A/L702H mutant protein (Homo sapiens, UniProt P10275, L702H/T878A).
T3 construct: Androgen Receptor dual T878A/L702H mutant protein in human MDA PCa 2b (ATCC, #CRL-2422) cells; host or cells: MDA PCa 2b
T3 sequence (P10275 1-920 L702H/T878A): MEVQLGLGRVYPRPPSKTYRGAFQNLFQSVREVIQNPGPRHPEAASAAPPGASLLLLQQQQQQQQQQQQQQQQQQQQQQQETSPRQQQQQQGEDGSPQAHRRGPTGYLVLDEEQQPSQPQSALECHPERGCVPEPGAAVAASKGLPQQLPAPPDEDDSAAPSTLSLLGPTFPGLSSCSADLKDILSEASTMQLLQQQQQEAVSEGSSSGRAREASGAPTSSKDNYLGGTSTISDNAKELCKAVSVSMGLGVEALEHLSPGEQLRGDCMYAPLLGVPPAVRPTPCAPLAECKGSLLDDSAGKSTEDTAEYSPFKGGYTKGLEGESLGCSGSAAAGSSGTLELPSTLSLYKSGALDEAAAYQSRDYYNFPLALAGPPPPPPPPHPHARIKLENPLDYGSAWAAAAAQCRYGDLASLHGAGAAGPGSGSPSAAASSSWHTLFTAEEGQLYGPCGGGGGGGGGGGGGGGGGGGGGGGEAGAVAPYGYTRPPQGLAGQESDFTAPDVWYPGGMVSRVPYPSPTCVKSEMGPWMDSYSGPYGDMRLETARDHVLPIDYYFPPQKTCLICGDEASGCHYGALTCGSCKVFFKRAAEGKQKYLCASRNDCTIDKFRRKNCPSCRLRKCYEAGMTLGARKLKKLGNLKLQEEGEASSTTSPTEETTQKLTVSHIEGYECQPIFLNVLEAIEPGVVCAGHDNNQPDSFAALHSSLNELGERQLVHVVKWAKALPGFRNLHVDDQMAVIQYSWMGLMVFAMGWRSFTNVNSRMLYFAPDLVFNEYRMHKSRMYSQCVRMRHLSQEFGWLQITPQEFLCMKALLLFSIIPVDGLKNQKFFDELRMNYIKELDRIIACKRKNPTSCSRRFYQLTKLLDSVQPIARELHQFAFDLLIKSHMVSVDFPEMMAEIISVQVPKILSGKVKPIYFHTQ
As to the kind of experiment: Dual Mutant (T878A/L702H) Androgen Receptor Degradation Assay (HTRF). The following applies: MDA-PCa-2b, 18 h, human MDA PCa 2b cells, read-out: mean asymptote max. Here is the method:
Degradation of Androgen Receptor dual T878A/L702H mutant protein in human MDA PCa 2b (ATCC, #CRL-2422) cells treated with PROTACs was quantified using the HTRF Human Androgen Receptor Detection Kit (PerkinElmer, #64ANDRPEH) in 384 well assay plate format. 10 mM DMSO(Sigma-Aldrich, #472301) stock solutions of PROTACs were prepared and diluted across an 11 concentration, 3-fold increment range, and 25 nL dispensed into a white opaque bottomed 384 well assay plate (Thermofisher, #164610) using an acoustic ECHO dispenser (Labcyte). Cells were cultured in growth medium (BRFF-HPC-1 (Athena ES, #0403) supplemented with 20% FBS (Gibco, #10099-141), penicillin 50 U/mL and streptomycin 50 ug/mL (Gibco, #15140-122)) in collagen I or poly-D-lysine coated T175 flasks (Corning, #356487 or #356539, respectively). For the assay, cells were harvested from the flask, centrifuged at 200 g for 5 min and then resuspended in the growth medium. 25 μl of cell suspension containing 10,000 cells was dispensed into each well of the assay plate containing the test compounds, which was then incubated for 18 h at 37° C./5% CO2. Control wells were included on each assay plate, with assay medium without cells being the no AR remaining 100% effect control, and cells treated with DMSO vehicle only, without PROTAC, the 0% effect control. After 18 h incubation 8 μl of supplemented lysis buffer from HTRF kit was added to each well and the plate shaken at 500 rpm for 1 h at room temperature. 8 μl of antibody mix in Detection buffer from HTRF kit was added to each well and the plate was incubated for 2 h in dark at room temperature. The fluorescence was measured at both 620 nm and 665 nm using an excitation wavelength of 337 nm with a PHERAstar microplate reader (BMG Labtech) and the % AR protein remaining in each well was calculated by normalising the HTRF ratio (665 nm signal/620 nm signal) value to the control wells mentioned above. Parameters corresponding to the potency and efficacy estimates of the PROTACs were obtained from these normalised values using curve fitting software (IDBS ActivityBase). These included the DC50 and the Dmax estimates. Two versions of the DC50, called relative DC50 and absolute DC50, were typically generated. These are the inflection point of a fitted 4 parameter sigmoidal response curve and the interpolated concentration of PROTAC corresponding to 50% of the protein being degraded, respectively. The Dmax parameter was the maximum experimentally observed degradation and the asymptote max parameter the fitted response curve asymptote maximum.

The structures appear in SMILES notation. Structures can show the parent of a compound that is named as a salt. Bounds are passed on as bounds.

T1 sequence (O43353 whole entry): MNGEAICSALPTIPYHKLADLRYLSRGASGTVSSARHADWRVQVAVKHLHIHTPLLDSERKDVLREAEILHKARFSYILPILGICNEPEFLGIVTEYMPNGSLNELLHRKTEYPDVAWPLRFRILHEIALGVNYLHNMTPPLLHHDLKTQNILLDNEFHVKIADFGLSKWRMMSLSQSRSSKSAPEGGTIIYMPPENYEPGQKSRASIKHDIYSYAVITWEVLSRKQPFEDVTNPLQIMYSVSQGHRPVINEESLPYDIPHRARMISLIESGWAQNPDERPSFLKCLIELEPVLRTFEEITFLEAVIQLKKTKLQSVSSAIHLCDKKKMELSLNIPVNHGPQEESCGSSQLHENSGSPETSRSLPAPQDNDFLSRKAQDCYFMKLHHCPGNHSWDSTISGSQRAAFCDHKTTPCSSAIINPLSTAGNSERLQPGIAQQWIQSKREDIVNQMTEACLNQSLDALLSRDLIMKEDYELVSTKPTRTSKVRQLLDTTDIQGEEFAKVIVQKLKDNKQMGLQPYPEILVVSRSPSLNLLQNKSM
T2 sequence (P10275 whole entry T878A): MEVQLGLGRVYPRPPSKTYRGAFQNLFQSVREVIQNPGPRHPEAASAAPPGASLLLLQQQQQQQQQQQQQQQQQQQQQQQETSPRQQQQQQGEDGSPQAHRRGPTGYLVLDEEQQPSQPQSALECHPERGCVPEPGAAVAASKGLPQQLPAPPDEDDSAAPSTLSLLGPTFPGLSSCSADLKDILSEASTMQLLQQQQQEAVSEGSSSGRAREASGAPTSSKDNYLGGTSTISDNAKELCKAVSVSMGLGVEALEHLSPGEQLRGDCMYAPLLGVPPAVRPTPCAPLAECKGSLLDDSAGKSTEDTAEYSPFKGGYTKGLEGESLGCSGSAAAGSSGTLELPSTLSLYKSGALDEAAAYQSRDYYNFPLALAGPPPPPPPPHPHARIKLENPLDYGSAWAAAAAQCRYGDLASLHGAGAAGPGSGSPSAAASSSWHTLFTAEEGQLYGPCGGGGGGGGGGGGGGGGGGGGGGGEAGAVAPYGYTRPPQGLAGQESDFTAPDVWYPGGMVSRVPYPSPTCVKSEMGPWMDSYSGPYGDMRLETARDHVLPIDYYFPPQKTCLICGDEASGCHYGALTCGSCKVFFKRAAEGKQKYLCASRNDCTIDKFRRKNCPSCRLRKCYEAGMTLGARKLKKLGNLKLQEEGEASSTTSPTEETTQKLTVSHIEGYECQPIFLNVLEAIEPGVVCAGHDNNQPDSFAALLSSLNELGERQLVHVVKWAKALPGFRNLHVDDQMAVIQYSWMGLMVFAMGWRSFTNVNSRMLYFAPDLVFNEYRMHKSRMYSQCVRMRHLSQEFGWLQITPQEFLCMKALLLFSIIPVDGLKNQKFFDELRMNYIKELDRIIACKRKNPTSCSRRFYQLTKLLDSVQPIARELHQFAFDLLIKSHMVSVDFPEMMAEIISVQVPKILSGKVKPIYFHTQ
T2 sequence (Q96SW2 whole entry partner): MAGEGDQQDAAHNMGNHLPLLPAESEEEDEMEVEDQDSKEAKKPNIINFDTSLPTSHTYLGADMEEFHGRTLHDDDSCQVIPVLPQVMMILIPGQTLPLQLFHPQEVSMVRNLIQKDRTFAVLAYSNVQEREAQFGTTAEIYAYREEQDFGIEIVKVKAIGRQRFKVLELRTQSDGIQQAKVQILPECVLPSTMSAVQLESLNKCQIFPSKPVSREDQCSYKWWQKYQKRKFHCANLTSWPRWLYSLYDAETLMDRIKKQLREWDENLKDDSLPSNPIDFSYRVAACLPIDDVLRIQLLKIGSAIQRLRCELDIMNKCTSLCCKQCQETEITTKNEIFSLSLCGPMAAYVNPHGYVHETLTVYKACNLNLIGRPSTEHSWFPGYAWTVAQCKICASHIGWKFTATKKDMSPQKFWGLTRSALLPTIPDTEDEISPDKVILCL
T2 sequence (Q16531 whole entry partner): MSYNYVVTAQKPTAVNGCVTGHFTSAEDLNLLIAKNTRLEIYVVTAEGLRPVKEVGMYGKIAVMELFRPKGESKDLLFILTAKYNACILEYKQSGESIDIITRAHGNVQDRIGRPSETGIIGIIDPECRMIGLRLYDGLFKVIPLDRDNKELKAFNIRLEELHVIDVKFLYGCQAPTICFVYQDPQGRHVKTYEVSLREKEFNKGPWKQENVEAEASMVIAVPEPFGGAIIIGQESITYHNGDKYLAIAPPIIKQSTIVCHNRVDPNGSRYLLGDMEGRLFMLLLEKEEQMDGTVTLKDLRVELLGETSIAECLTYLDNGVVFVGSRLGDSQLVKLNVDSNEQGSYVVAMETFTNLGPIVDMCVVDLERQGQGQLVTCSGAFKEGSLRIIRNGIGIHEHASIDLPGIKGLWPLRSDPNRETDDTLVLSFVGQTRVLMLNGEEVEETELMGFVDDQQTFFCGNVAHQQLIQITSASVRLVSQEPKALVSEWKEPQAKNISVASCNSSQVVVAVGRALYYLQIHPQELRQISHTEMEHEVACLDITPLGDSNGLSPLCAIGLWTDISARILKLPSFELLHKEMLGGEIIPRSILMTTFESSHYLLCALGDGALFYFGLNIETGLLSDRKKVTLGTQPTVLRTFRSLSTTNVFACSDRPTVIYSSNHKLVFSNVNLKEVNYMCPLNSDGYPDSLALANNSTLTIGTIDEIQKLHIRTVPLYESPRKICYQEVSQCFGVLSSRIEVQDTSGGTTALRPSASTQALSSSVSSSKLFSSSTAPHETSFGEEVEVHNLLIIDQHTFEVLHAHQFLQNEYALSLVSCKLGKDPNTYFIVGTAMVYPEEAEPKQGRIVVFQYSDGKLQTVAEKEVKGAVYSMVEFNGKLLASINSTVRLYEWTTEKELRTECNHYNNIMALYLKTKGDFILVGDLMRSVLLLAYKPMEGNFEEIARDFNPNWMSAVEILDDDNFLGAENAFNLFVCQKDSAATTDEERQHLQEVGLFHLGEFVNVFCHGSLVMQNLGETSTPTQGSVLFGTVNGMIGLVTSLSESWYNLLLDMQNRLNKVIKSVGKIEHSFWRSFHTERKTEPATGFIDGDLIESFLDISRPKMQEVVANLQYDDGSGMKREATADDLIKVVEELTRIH

Regarding `CC(C)(C)S(=O)(=O)c1cc2c(Nc3ccc4scnc4c3)ccnc2cc1OCCCCCCCC(=O)N1CCC(n2ccc3c(N4CCC(=O)NC4=O)cccc32)CC1` [Example R1, 1-(1-(1-(8-((4-(Benzo[d]thiazol-5-ylamino)-6-(tert-butylsulfonyl)quinolin-7-yl)oxy)octanoyl)piperidin-4-yl)-1H-indol-4-yl)dihydropyrimidine-2,4(1H,3H)-dione], at RIPK2, the “Mean asymptote max (%)” value was determined as 96% and the “mean relative pDC50” value was determined as 8.5.

For `CC1(C)[C@H](NC(=O)c2cnc(N3CCC(CN4CCC(n5ccc6c(N7CCC(=O)NC7=O)cncc65)CC4)CC3)cn2)C(C)(C)[C@H]1Oc1ccc(C#N)c(Cl)c1` [AR14, N-((1r,3r)-3-(3-Chloro-4-cyanophenoxy)-2,2,4,4-tetramethylcyclobutyl)-5-(4-((4-(4-(2,4-dioxotetrahydropyrimidin-1(2H)-yl)-1H-pyrrolo[2,3-c]pyridin-1-yl)piperidin-1-yl)methyl)piperidin-1-yl)pyrazine-2-carboxamide], the Dmax at Androgen Receptor was not below 50%; in assay [1], not below 55%.

As to `CC(C)n1ccc2c(N3CCC(=O)NC3=O)cc(C(=O)NCCOCCOCCOc3cc4nccc(Nc5ccc6scnc6c5)c4cc3S(=O)(=O)C(C)(C)C)cc21` [Example R3, N-(2-(2-(2-((4-(Benzo[d]thiazol-5-ylamino)-6-(tert-butylsulfonyl)quinolin-7-yl)oxy)ethoxy)ethoxy)ethyl)-4-(2,4-dioxotetrahydropyrimidin-1(2H)-yl)-1-isopropyl-1H-indole-6-carboxamide], on RIPK2, the “Mean asymptote max (%)” value came to 92% and the “mean relative pDC50” value was determined as 8.3.

As for `CC(C)(C)S(=O)(=O)c1cc2c(Nc3ccc4scnc4c3)ccnc2cc1OCCCN1CCC(c2cnc(C(=O)N3CCC(n4ccc5c(N6CCC(=O)NC6=O)cccc54)CC3)cn2)CC1.O=CO` [Example R2, 1-(1-(1-(5-(1-(3-((4-(Benzo[d]thiazol-5-ylamino)-6-(tert-butylsulfonyl)quinolin-7-yl)oxy)propyl)piperidin-4-yl)pyrazine-2-carbonyl)piperidin-4-yl)-1H-indol-4-yl)dihydropyrimidine-2,4(1H,3H)-dione formate], on RIPK2, the “Mean asymptote max (%)” value came out at 88% and the “mean relative pDC50” value is given as 8.5.

With `CC1(C)[C@H](NC(=O)c2cnc(N3CCC(C(=O)N4CCC(n5ccc6c(N7CCC(=O)NC7=O)cccc65)CC4)CC3)nc2)C(C)(C)[C@H]1Oc1ccc(C#N)c(Cl)c1` [AR67, N-((1r,3r)-3-(3-Chloro-4-cyanophenoxy)-2,2,4,4-tetramethylcyclobutyl)-2-(4-(4-(4-(2,4-dioxotetrahydropyrimidin-1(2H)-yl)-1H-indol-1-yl)piperidine-1-carbonyl)piperidin-1-yl)pyrimidine-5-carboxamide], the results for the Dmax (on Androgen Receptor; in assay [1]) were not below 50% and not below 55%, respectively.

Regarding `CC1(C)[C@H](NC(=O)c2ccc(N3CCC(CN4CCC(n5ccc6c(N7CCC(=O)NC7=O)ncnc65)CC4)CC3)nn2)C(C)(C)[C@H]1Oc1ccc(C#N)c(Cl)c1` [AR247, N-((1r,3r)-3-(3-Chloro-4-cyanophenoxy)-2,2,4,4-tetramethylcyclobutyl)-6-(4-((4-(4-(2,4-dioxotetrahydropyrimidin-1(2H)-yl)-7H-pyrrolo[2,3-d]pyrimidin-7-yl)piperidin-1-yl)methyl)piperidin-1-yl)pyridazine-3-carboxamide], the Dmax is not below 50% at Androgen Receptor and not below 55% in assay [1].

In the case of `CC1(C)[C@H](NC(=O)c2ccc(N3CCC(CN4CCC(n5ccc6c(N7CCC(=O)NC7=O)nccc65)CC4)CC3)nn2)C(C)(C)[C@H]1Oc1ccc(C#N)c2ncccc12` [EAR251, N-((1r,3r)-3-((8-Cyanoquinolin-5-yl)oxy)-2,2,4,4-tetramethylcyclobutyl)-6-(4-((4-(4-(2,4-dioxotetrahydropyrimidin-1(2H)-yl)-1H-pyrrolo[3,2-c]pyridin-1-yl)piperidin-1-yl)methyl)piperidin-1-yl)pyridazine-3-carboxamide hydrochloride], the Dmax is not below 50% at Androgen Receptor and not below 55% in assay [1].
